# The source made the active and inactive calls.
# Experiments:
# [1] = reduction of Shn3 3'UTR-driven luciferase in osteoblasts – cell-based, Clone20 osteoblasts, firefly luciferase, cherry-picked, dose response (AID 624132); format: functional;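 also: firefly luciferase luminescence from reporter carrying the Shn3 3'UTR in osteoblasts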
# [2] = loss of viability in HepG2 cells – cell-based, CellTiter-Glo, cherry-picked, cytotoxicity control for Shn3 inhibitor project, dose response (AID 624134); format: functional
# [3] = non-specific 3'UTR reporter inhibition in Clone20-Shn3RL – cell-based, Renilla luciferase, cherry-picked, counter-screen for Shn3 inhibitor project, dose response (AID 624133); format: functional
# Coagulation factor XII = target: T1, Coagulation factor XII (Homo sapiens, UniProt P00748); format: functional;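 also: activated factor XIIa alpha cleaving a fluorogenic AMC peptide substrate; inhibitor potency from loss of enzyme activity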
# T1 sequence (P00748 whole entry): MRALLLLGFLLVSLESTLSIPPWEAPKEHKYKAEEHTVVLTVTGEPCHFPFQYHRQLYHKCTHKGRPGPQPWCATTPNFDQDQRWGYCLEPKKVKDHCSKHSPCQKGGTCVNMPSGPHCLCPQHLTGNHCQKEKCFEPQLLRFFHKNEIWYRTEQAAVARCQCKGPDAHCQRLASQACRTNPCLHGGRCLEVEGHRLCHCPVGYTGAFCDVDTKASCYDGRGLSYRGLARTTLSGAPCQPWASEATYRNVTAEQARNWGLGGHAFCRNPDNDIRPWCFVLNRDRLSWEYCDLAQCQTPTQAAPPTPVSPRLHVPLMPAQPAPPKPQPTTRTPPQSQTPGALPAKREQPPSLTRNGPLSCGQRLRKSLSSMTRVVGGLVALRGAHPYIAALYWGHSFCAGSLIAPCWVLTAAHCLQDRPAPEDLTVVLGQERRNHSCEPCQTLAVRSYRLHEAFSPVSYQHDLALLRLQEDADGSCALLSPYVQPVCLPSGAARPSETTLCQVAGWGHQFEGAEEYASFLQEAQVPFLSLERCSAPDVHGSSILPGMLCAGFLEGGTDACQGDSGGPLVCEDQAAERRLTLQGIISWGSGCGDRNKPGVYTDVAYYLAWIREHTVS
# [4] = target: T2, Corticotropin-releasing factor receptor 2/Corticotropin-releasing factor-binding protein (Homo sapiens, UniProt P24387+Q13324); test: Dose Response confirmation of uHTS hits for small molecule antagonists of the CRF-binding protein and CRF-R2 receptor complex.; format: functional; conditions: read-out: IC50_Mean
# T2 sequence (Q13324 whole entry): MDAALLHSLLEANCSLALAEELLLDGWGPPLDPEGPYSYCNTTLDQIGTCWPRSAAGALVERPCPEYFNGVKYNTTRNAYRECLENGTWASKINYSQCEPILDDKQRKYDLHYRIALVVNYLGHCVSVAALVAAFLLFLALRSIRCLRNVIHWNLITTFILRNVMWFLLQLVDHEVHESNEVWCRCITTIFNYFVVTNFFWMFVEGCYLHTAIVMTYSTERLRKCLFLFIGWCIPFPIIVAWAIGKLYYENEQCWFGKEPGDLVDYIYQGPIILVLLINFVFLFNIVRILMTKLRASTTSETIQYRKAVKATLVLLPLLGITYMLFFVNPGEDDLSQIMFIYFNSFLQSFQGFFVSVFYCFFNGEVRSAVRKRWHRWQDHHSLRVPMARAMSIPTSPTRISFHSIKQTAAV
# T2 sequence (P24387 whole entry): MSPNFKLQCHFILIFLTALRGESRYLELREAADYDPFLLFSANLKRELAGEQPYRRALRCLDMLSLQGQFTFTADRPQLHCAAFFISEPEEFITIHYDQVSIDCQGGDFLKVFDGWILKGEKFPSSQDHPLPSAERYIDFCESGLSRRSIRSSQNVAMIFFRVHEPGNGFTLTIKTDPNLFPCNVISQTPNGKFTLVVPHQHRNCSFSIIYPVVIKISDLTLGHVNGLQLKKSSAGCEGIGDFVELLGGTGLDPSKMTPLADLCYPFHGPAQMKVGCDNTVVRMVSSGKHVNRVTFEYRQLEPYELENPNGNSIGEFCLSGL
# [5] = target: T2, Corticotropin-releasing factor receptor 2/Corticotropin-releasing factor-binding protein; test: activators of CRF receptor 2 with binding protein – uHTS hits, confirmation (AID 602473); format: functional; conditions: read-out: EC50_Mean
# [6] = blockers of CRF-binding protein–CRF-R2 complex – cell-based, uHTS hits, 384-well, dose response (AID 651639); format: functional, Homo sapiens; conditions: read-out: IC50_Mean
# Cytochrome P450 2D6 = Cytochrome P450 2D6 (Homo sapiens, UniProt P10635);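 also: CYP2D6 member of a cytochrome P450 panel assay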
# Chain of Cytochrome P450 2D6 (P10635 whole entry): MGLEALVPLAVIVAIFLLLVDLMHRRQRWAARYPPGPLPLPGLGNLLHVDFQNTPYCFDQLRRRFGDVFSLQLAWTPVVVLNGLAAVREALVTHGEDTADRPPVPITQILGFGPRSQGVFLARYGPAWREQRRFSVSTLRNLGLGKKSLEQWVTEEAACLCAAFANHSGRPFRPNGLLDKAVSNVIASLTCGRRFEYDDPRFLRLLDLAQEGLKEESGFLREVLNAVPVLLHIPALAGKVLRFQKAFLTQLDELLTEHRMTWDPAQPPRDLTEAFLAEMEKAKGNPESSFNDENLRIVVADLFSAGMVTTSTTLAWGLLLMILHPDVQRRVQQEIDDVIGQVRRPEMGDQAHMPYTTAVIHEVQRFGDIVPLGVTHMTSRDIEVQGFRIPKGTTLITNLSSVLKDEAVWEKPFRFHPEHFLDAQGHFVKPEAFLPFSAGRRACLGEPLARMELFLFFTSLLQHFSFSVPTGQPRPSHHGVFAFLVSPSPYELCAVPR
# [7] = system: Streptococcus sp. 'group A'; test: Streptococcus pyogenes SK(-)GAS viability under kanamycin – luminescence, BacTiterGlo, confirmation, counter-screen for streptokinase expression inhibitor project, dose response (AID 1900); format: functional, organism-based
# Streptokinase A = target: T3, Streptokinase A (Streptococcus pyogenes serotype M1, UniProt P10520); test: viability-normalized secreted streptokinase activity reduction – plasminogen activation absorbance, OD405, dose response (AID 1914); format: functional, Streptococcus pyogenes M1 GAS;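 also: secreted streptokinase activity via plasminogen activation per viability signal from cell pellet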
# T3 sequence (P10520 whole entry): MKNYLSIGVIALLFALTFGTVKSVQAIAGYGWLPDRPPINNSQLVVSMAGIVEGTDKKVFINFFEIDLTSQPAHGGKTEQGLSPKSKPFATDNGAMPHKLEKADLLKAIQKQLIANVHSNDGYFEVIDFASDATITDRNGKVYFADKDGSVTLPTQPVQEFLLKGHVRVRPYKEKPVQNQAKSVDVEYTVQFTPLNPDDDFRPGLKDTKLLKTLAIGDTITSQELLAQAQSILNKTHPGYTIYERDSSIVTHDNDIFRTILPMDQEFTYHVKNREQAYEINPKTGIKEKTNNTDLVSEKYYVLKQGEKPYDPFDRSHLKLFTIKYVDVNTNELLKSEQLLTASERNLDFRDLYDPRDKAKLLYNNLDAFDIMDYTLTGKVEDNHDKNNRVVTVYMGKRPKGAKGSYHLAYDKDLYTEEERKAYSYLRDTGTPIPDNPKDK
# [8] = target: T4, Calpain-2 catalytic subunit (Sus scrofa, UniProt P43367); test: m-calpain protease blockers, concentration series – biochemical, fluorogenic peptide substrate, dose response (AID 1420); format: functional
# T4 sequence (P43367 whole entry): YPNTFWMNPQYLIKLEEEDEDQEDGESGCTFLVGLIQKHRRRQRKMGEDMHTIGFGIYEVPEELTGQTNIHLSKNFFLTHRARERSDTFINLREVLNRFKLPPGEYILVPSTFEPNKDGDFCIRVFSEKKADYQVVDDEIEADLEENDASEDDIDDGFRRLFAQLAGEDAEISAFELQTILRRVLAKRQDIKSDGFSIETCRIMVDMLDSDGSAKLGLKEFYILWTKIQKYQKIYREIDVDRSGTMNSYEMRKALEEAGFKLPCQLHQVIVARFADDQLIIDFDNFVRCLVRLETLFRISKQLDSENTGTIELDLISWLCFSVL
# Streptococcus = test: GAS UMAA2166 growth inhibition – luminescence, BacTiterGlo, counter-screen for streptokinase expression inhibitor project, dose response (AID 1915); format: functional, organism-based;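 also: potency for reduction of bacterial viability or growth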
# X-box-binding protein 1 = target: T5, X-box-binding protein 1 (Homo sapiens, UniProt P17861); format: functional, Cricetulus griseus;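 also: confirmatory dose-response counter-screen serving a CHOP assay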
# T5 sequence (P17861 whole entry): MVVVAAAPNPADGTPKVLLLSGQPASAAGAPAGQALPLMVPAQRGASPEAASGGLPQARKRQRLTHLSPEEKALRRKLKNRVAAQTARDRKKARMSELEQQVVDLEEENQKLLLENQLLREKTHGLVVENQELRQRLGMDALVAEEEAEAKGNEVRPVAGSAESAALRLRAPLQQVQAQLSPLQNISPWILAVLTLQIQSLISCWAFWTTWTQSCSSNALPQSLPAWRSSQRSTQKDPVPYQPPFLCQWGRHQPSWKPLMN
# [9] = target: Heat shock protein HSP 90-alpha (Homo sapiens, UniProt P07900); format: functional, organism-based
# INS1 = test: INS-1E survival protection against cytokine death – cell-based, luminescence, retest, dose response (AID 449756); format: functional; conditions: Rattus norvegicus;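 also: cell death triggered by IL-1 beta plus TNF-alpha plus IFN-gamma mixture; protective hits raise ATP signal compared with cytokine alone wells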
# Genome polyprotein = Genome polyprotein (dengue virus type 2, UniProt P29990); test: flavivirus cap methylation enzyme inhibition – biochemical, confirmation dose response, primary screen (AID 588689); format: functional
# Chain of Genome polyprotein (P29990 2492-3391 limits assumed): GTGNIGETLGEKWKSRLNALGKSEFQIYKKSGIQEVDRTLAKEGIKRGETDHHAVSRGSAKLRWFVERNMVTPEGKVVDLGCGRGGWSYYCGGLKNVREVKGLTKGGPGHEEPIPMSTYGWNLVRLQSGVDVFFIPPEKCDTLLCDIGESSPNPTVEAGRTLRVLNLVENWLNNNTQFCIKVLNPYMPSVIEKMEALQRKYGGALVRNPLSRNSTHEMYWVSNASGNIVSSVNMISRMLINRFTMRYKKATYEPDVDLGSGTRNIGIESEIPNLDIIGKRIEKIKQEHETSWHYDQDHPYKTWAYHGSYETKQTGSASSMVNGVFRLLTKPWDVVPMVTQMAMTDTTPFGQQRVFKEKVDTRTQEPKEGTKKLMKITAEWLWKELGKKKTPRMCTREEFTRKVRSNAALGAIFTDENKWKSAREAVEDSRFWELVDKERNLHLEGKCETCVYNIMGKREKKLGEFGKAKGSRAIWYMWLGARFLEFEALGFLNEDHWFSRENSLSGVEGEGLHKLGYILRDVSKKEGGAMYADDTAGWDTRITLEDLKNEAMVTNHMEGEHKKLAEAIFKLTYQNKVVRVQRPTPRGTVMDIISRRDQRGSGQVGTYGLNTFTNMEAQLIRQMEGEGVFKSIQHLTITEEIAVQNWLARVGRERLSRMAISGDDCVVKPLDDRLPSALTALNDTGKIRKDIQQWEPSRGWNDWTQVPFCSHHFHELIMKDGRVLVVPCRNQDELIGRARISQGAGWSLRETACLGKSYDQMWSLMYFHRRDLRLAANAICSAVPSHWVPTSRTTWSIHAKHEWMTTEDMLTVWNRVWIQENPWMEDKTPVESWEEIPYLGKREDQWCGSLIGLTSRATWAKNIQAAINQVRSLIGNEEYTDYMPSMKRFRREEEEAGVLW
# [10] = Trypanosoma cruzi growth suppression in host cells – NIH3T3 host cells, beta-gal luminescence, confirmation (AID 2044); format: functional, cell-based;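 also: intracellular parasites grown in NIH/3T3 mouse fibroblasts as host cells; luminescent beta-galactosidase reporter signal from transgenic T. cruzi replicating inside host cells; inhibitors lower the luminescence signal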
# [11] = target: T6, RNA-binding protein pos-1 (Caenorhabditis elegans, UniProt G5EF15); test: disruptors of C. elegans POS-1 RNA interaction – biochemical, fluorescence polarization, dose response (AID 1964);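 also: purified POS-1 fused to maltose binding protein made in E. coli; potency of compounds blocking POS-1 binding to fluorescent RNA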
# T6 sequence (G5EF15 whole entry): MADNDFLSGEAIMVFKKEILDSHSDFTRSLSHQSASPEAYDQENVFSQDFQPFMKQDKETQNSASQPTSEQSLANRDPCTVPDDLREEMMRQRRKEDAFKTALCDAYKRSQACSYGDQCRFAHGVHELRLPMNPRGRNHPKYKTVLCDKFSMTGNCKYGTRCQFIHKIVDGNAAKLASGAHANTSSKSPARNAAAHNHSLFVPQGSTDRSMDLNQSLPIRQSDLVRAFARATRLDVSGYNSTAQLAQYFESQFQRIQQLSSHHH
# [12] = target: T7, Zinc finger protein mex-5 (Caenorhabditis elegans, UniProt Q9XUB2); test: potency of MEX-5 RNA-binding blockers – biochemical, C. elegans, fluorescence polarization, dose response (AID 1960)
# T7 sequence (Q9XUB2 whole entry): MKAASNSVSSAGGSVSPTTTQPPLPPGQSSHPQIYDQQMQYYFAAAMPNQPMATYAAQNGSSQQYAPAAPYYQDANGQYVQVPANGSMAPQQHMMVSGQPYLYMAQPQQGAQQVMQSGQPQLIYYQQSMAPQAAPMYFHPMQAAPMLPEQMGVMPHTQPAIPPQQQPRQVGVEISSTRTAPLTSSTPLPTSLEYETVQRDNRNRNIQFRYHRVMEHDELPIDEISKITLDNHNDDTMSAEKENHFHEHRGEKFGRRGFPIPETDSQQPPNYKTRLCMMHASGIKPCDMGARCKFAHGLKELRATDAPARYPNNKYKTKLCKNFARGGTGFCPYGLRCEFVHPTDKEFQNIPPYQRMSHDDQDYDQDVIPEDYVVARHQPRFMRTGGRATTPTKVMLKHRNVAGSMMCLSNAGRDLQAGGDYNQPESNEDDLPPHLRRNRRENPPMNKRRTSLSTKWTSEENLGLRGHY
# [13] = target: T8, Rac GTPase-activating protein 1 (Homo sapiens, UniProt Q9H0H5); test: blockers of MgcRacGAP-driven Rac1 GTP hydrolysis – biochemical, ADP Hunter fluorescence, primary and confirmatory, confirmation (AID 624330); format: functional
# T8 sequence (Q9H0H5 whole entry): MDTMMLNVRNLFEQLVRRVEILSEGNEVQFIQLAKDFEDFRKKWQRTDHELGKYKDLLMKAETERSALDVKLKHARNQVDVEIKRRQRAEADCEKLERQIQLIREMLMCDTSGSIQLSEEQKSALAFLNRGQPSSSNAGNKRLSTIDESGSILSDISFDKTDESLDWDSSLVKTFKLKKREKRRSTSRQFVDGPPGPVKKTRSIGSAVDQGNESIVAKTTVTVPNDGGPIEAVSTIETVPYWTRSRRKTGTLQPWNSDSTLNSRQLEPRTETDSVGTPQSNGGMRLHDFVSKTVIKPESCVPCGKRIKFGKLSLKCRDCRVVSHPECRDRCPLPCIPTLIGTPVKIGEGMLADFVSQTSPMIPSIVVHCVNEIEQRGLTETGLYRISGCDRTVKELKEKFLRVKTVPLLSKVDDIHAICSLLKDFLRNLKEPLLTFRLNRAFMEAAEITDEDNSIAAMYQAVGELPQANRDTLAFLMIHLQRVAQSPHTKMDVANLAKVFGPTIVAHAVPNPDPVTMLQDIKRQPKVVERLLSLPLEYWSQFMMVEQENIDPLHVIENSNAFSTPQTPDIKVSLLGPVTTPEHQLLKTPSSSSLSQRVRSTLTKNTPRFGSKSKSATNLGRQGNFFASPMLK
smiles,measurement,setting,value
COc1cccc(CNc2ncnc3cc(Cl)ccc23)c1,AC50,[1],3.73 µM (active)
same,AC50,[2],> 70 µM (inactive)
same,AC50,[3],5.85 µM (active)
Cc1ccc(S(=O)(=O)N(Cc2ccccc2)c2ccccc2C(=O)NCc2ccco2)cc1,IC50,Coagulation factor XII,> 50 µM (inactive)
same,IC50,[4],< 0.368 µM (active)
same,EC50,[5],> 53 µM (inactive)
same,IC50,[6],6.81 µM (active)
same,AC50,Cytochrome P450 2D6,15.8 µM (inconclusive)
O=[N+]([O-])c1ccc(NC(S)=NCCc2ccc(Cl)cc2)cc1,EC50,[7],2.92 µM (active)
same,EC50,Streptokinase A,18.9 µM (active)
same,IC50,[8],1.82 µM (not active)
same,EC50,Streptococcus,33.2 µM (active)
same,Absolute IC50 (XBP1),X-box-binding protein 1,10 µM
same,AC50,[9],4.1 µM (active)
same,AC50,INS1,7.38 µM (active)
O=C(Nc1ccccc1C(=O)O)c1cccc(C(=O)Nc2ccccc2C(=O)O)c1,IC50,Genome polyprotein,54.9 µM (active)
Oc1c(C(Nc2ccccn2)c2cccnc2)cc(Cl)c2cccnc12 (configuration not stated),EC50,[7],4.69 µM (active)
same,EC50,Streptokinase A,> 150 µM (not active)
same,EC50,[10],1.64 µM (active)
same,EC50,Streptococcus,9.26 µM (active)
same,AC50,[9],4.19 µM (active)
same,AC50,INS1,2.65 µM (active)
CSc1sccc1/C=C(/C#N)C(=O)c1ccco1,EC50,[11],> 300 µM (not active)
same,EC50,[12],> 300 µM (not active)
same,IC50,Genome polyprotein,> 100 µM (active)
same,IC50,[13],22.8 µM (active)
CN(C)/C=C/C(=O)c1ccc2noc(-c3ccccc3)c2c1,AC50,[9],2.51 µM (active)
CC(C)c1ccc(Nc2ccc(C(=O)O)cc2[N+](=O)[O-])cc1,IC50,Genome polyprotein,70.7 µM (active)
O=[N+]([O-])c1cc(-c2ccccc2)cc([N+](=O)[O-])c1O,IC50,Genome polyprotein,58.8 µM (active)
same,IC50,[4],9.96 µM (active)
same,EC50,[5],> 53 µM (inactive)
same,IC50,[6],> 20 µM (inactive)

# — ChEMBL document CHEMBL1201862, “PubChem BioAssay data set” (2004)
